This is an account of results in ChEMBL document CHEMBL3608284, “C4 phenyl aporphines with selective h5-HT(2B) receptor affinity” (Bioorg Med Chem Lett, 2015).

The structures appear in SMILES notation.

In assay [1] the target is T1, 5-hydroxytryptamine receptor 1A (Homo sapiens) (UniProt P08908).
T1 sequence (whole entry): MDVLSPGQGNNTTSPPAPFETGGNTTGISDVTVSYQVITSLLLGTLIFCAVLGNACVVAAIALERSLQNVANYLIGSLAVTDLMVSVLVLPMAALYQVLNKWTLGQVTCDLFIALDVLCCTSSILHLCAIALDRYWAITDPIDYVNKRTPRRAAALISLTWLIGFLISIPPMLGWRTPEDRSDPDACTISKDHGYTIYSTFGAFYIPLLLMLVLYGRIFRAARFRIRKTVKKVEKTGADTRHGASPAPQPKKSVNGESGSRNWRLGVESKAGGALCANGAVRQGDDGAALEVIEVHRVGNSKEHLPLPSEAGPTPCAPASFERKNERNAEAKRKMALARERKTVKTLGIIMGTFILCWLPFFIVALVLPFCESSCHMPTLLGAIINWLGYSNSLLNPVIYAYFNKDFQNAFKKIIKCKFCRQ
As to the kind of experiment: Displacement of [3H]-8-OH-DPAT from 5HT1A receptor (unknown origin) at 10 uM. (Displacement assays read how much labelled ligand stays bound in the presence of the test substance.)

For assay [2], the target named is T2, 5-hydroxytryptamine receptor 1B (Homo sapiens, UniProt P28222). As to the kind of experiment: Displacement of [3H]GR125743 from 5HT1B receptor (unknown origin) at 10 uM.
T2 sequence (P28222 whole entry): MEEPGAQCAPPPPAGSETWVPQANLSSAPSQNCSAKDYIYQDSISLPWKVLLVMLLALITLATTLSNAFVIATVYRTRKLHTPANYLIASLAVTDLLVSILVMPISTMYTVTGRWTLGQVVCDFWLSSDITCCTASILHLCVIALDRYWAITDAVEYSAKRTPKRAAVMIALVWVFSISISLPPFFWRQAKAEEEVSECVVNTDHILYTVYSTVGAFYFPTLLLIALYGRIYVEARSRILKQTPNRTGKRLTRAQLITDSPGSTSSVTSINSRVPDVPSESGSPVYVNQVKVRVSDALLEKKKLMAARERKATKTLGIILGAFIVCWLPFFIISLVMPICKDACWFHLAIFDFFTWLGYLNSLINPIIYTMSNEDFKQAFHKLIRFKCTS
Assay [3] deals with 5-hydroxytryptamine receptor 1D (Homo sapiens) (UniProt P28221). As to the kind of experiment: Displacement of [3H]GR125743 from 5HT1D receptor (unknown origin) at 10 uM.
Chain of 5-hydroxytryptamine receptor 1D (Homo sapiens) (P28221 whole entry): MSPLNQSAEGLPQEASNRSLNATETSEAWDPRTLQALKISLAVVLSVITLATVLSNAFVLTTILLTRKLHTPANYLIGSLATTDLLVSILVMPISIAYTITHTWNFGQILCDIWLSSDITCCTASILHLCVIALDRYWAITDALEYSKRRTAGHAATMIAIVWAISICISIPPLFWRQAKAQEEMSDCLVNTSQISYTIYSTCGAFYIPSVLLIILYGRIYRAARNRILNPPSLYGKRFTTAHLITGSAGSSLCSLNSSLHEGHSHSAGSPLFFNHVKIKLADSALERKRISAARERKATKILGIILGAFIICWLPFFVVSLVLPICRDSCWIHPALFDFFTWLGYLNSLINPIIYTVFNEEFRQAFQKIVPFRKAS
Assay [4] deals with 5-hydroxytryptamine receptor 1E (Homo sapiens) (UniProt P28566). As to the kind of experiment: Displacement of [3H]5HT from 5HT1E receptor (unknown origin) at 10 uM.
Chain of 5-hydroxytryptamine receptor 1E (Homo sapiens) (P28566 whole entry): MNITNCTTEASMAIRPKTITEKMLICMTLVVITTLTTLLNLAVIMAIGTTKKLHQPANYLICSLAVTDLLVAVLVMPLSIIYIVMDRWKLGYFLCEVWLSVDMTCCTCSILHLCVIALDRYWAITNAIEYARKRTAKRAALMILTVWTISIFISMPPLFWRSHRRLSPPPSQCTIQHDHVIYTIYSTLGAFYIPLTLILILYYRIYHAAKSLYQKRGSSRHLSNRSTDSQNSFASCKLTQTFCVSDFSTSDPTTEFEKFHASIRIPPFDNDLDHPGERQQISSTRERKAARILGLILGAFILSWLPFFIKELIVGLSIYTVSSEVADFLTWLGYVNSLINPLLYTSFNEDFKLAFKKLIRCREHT
For assay [5], the target named is 5-hydroxytryptamine receptor 2A (Homo sapiens) (UniProt P28223). As to the kind of experiment: Displacement of [3H]ketanserin from 5HT2A receptor (unknown origin) at 10 uM.
Chain of 5-hydroxytryptamine receptor 2A (Homo sapiens) (P28223 whole entry): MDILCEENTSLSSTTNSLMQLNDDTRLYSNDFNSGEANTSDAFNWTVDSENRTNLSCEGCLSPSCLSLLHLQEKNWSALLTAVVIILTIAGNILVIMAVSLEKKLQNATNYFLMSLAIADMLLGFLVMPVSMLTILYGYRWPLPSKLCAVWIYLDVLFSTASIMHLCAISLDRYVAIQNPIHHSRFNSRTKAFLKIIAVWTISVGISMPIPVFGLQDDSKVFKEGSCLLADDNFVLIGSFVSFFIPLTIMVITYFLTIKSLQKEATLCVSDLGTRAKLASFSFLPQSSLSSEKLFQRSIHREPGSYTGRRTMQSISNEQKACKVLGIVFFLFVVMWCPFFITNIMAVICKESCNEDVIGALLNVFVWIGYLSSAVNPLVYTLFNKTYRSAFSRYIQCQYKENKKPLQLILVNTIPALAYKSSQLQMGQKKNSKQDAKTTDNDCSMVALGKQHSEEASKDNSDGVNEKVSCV
Assay [6] concerns the target T3, 5-hydroxytryptamine receptor 2B (Homo sapiens, UniProt P41595). As to the kind of experiment: Displacement of [3H]LSD from 5HT2B receptor (unknown origin) at 10 uM.
Assay [7] addresses T4, 5-hydroxytryptamine receptor 2C (Homo sapiens) (UniProt P28335).
T4 sequence (whole entry): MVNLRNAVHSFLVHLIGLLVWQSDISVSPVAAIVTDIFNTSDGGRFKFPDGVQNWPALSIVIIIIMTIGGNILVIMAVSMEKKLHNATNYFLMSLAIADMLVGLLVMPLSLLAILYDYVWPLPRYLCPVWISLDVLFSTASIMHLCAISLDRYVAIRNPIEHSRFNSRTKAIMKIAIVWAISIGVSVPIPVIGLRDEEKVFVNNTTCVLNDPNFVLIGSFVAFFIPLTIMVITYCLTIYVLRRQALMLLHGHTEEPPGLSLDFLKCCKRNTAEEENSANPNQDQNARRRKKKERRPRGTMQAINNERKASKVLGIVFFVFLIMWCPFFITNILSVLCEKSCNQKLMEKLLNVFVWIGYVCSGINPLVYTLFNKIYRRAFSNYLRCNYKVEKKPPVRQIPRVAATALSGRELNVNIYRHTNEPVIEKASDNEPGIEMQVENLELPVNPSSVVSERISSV
As to the kind of experiment: Displacement of [3H]mesulergine from 5HT2C receptor (unknown origin) at 10 uM.

Assay [8] has as its target T5, 5-hydroxytryptamine receptor 3A (Homo sapiens) (UniProt P46098).
T5 sequence (whole entry): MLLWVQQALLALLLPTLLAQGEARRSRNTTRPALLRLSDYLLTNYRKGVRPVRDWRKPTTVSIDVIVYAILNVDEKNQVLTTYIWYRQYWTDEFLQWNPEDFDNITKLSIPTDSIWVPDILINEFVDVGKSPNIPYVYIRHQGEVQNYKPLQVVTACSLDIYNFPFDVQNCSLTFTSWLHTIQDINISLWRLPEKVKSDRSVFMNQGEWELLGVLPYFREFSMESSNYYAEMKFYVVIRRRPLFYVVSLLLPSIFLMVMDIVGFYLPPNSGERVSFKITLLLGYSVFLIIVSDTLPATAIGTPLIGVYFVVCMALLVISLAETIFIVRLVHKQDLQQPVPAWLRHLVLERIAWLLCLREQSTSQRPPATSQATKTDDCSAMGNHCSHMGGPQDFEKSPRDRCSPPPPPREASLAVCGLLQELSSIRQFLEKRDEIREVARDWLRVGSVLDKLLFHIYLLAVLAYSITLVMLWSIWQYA
As to the kind of experiment: Displacement of [3H]LY278584 from 5HT3 receptor (unknown origin) at 10 uM.

For assay [9], the target named is 5-hydroxytryptamine receptor 5A (Homo sapiens) (UniProt P47898). As to the kind of experiment: Displacement of [3H]LSD from 5HT5A receptor (unknown origin) at 10 uM.
Chain of 5-hydroxytryptamine receptor 5A (Homo sapiens) (P47898 whole entry): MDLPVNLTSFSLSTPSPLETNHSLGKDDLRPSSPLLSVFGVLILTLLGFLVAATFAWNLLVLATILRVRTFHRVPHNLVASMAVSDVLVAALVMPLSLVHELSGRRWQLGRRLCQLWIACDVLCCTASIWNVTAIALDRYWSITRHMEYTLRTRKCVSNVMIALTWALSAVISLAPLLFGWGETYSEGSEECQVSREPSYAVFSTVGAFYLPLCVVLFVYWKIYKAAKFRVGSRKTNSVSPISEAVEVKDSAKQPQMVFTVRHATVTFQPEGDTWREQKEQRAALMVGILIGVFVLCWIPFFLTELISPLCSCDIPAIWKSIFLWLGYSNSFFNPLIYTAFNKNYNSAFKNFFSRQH
The target in assay [10] is 5-hydroxytryptamine receptor 7 (Homo sapiens) (UniProt P34969). As to the kind of experiment: Displacement of [3H]LSD from 5HT7 receptor (unknown origin) at 10 uM.
Chain of 5-hydroxytryptamine receptor 7 (Homo sapiens) (P34969 whole entry): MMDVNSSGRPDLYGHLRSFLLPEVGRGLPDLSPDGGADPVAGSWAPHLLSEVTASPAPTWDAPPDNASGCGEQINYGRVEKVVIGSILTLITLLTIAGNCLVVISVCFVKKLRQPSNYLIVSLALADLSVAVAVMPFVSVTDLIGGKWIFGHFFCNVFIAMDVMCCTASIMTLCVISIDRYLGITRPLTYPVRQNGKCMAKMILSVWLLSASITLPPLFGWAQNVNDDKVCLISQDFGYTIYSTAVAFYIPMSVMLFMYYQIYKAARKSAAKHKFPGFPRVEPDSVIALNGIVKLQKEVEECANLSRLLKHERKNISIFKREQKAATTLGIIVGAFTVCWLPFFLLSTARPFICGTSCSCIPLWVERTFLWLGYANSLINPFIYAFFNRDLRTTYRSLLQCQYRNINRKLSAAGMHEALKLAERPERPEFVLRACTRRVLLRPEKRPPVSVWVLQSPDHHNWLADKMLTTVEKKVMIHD
Assay [11] deals with T3, 5-hydroxytryptamine receptor 2B. As to the kind of experiment: Displacement of [3H]LSD from 5HT2B receptor (unknown origin).
The target of assay [12] is T2, 5-hydroxytryptamine receptor 1B. As to the kind of experiment: Displacement of [3H]GR125743 from 5HT1B receptor (unknown origin).

T3 sequence (P41595 whole entry): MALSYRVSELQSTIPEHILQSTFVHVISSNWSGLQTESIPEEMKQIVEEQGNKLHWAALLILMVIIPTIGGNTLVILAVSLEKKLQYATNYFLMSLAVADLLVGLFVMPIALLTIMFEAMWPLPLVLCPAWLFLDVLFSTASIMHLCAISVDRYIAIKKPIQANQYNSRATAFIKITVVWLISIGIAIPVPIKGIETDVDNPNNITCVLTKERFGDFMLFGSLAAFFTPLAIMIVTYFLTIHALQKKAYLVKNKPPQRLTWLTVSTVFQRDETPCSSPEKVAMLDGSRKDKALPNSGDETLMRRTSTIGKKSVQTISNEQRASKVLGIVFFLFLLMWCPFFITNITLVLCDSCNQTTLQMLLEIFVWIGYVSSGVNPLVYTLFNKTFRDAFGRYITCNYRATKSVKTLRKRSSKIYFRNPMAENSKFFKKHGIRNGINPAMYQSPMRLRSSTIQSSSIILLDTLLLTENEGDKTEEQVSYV

The term inhibition denotes the drop in the measured response relative to a control, in per cent. The Ki is a measure of affinity in units of concentration, obtained from inhibition or displacement. The low end stands for a stronger hold on the target, the high end for a looser hold on the target. Take `CCOc1c(OC)cc2c3c1-c1cc4c(cc1CC3N(C)CC2c1ccccc1)OCO4` (stereo not given): the inhibition in [1] was -0.9%; in assay [2], 20.6%; in [3], 29.7%; in [4] it was 10.3%; in assay [5] it was 40.1%; in assay [6], 83.3%. Further, the inhibition in [7] was 13.5%; in assay [8], -2.7%; in assay [9] it was -7.6%; in assay [10], 26%. In [11], the Ki worked out at 0.209 µM.

Regarding `COc1cc2c3c(c1OC)-c1cc4c(cc1CC3N(CC1CC1)CC2c1ccccc1)OCO4` (stereo not given), the inhibition was determined as 13.3% in assay [1]; 16.2% in assay [2]; 22.4% in assay [3]; 3.5% in [4]; 9.6% in assay [5]; 73.7% in assay [6]. Moreover, the inhibition in assay [7] was determined as 9.4%; in [10] it was 18.3%. In assay [11], the inhibition constant (Ki) amounted to 1.43 µM.

As to `CCCCOc1c(OC)cc2c3c1-c1cc4c(cc1CC3N(C)CC2c1ccccc1)OCO4` (stereo not given), the inhibition in assay [1] amounted to 18.4%; in assay [2] it was 41.4%; in [3] it was 24%; in assay [4] it was 7.3%; in [5], 40.9%; in assay [6], 76.1%. Further, the inhibition was 48% in assay [7], 11.6% in assay [8], 17.6% in assay [9] and -5.1% in [10]. The inhibition constant (Ki) in [11] is 0.601 µM.

For `CCCCCCOc1c(OC)cc2c3c1-c1cc4c(cc1CC3N(C)CC2c1ccccc1)OCO4` (stereo not given), the inhibition in assay [2] was determined as 4.3%; in assay [3] it was 13.4%; in [4], 2.4%; in assay [5], 19.9%; in assay [6], 63.6%; in assay [7] it was 49.3%. In addition, the inhibition in [8] was 0.8%; in assay [9], -6.2%. Moreover, in assay [11], the affinity, expressed as Ki, was 0.663 µM.

`CCCOc1c(OC)cc2c3c1-c1cc4c(cc1CC3N(C)CC2c1ccccc1)OCO4` (stereo not given): the inhibition in assay [1] stood at 27%; in assay [2], 51.7%; in assay [3] it was 22.4%; in [4] it was 2.1%; in [5] it was 32.3%; in assay [6], 84%. Further, the inhibition came to 13.1% in [7], 0.7% in [8], 5.2% in [9] and 8.6% in assay [10]. The results for the Ki in assay [12] and in assay [11] were 1.61 µM and 0.307 µM, respectively.

`CCN1CC(c2ccccc2)c2cc(OC)c(OC)c3c2C1Cc1cc2c(cc1-3)OCO2` (stereo not given): the inhibition in assay [1] stood at 3.3%; in [2] it was 23.6%; in assay [3], 27.4%; in assay [4], 5%; in [5], 12.8%; in assay [6], 88.4%. Also, the values for the inhibition in assay [7], in assay [8] and in assay [10] were -1.6%, -4.1% and 8.9%, respectively. Besides, the affinity in assay [11] corresponds to a Ki of 0.419 µM.

Turning to `COc1cc2c3c(c1OCc1ccc(Br)cc1)-c1cc4c(cc1CC3N(C)CC2c1ccccc1)OCO4` (stereo not given), the inhibition in assay [1] was 25.9%; in assay [2], 2.1%; in [3] it was 9.8%; in [4], -0.1%; in [5], 15.8%; in assay [6], 24.4%. Further, the inhibition in [7] is -6.6%; in assay [8] it was -7.4%; in [9], -9.3%.

For the compound `COc1cc2c3c(c1OCC1CC1)-c1cc4c(cc1CC3N(C)CC2c1ccccc1)OCO4` (stereo not given), the inhibition in assay [1] is -9.8%; in assay [2] it was 60.2%; in [3], 31.9%; in [4], 27.4%; in assay [5], 42.9%; in assay [6], 77.1%. For the same compound, the inhibition in assay [7] was 32.4%; in [8], 7.7%; in assay [9], 5.2%; in assay [10], 6.9%. Moreover, the inhibition constant (Ki) in assay [12] turned out to be 2.47 µM; in assay [11] it was 0.299 µM.

Regarding `COc1cc2c3c(c1O)-c1cc4c(cc1CC3N(C)CC2c1ccccc1)OCO4` (stereo not given), the inhibition in [1] is 24.2%; in assay [2], -5.2%; in assay [3] it was 15.8%; in [4], 11%; in assay [5], 29.2%; in [6], 50.3%. The inhibition in assay [7] is -2.3%; in assay [8], 4.1%; in assay [9], 1.8%; in assay [10] it was 31.3%. In assay [11], this compound displayed a Ki of 0.715 µM.

For `C=CCOc1c(OC)cc2c3c1-c1cc4c(cc1CC3N(C)CC2c1ccccc1)OCO4` (stereo not given), the inhibition in assay [1] came to 19.2%; in assay [2] it was 19.4%; in [3], 22.6%; in [4] it was 3.3%; in assay [5], 47.8%; in assay [6], 72.1%. In addition, the inhibition is 28.8% in assay [7], 8.3% in [8], -9.8% in [9] and 24.7% in assay [10]. In assay [11], affinity was put at a Ki of 0.416 µM.
